For data set [1], the system named is intracellular ROS levels in Calu-3 cells. It counts as cell-based, human.
Another data set in a line: in vitro. Conditions: human.
Data set [2] relates to pseudotyped vesicular stomatitis virus (VSV) that contains SARS-CoV-2 Spike protein. The format is cell-based.
The test system of a further data set is SARS-CoV-2 Delta strain. The settings on record: mouse, in vivo.

As to `N[C@@H](CCC(=O)N[C@@H](CS)C(=O)NCC(=O)O)C(=O)O` [GSH, glutathione], the “intracellular ROS levels after 24 h treatment” value in data set [1] is on record as “reduced ROS levels”.
`O=C(O)c1cc(/N=N/c2ccc(S(=O)(=O)Nc3ccccn3)cc2)ccc1O` [Sulfasalazine]: in “in vitro”, the CC50 is > 500 µM. For the same molecule, the “cytotoxic activity (in words)” value with Calu-3 cells is “no cytotoxicity at any of the tested concentrations”.
For `COc1cc(Nc2ncc(F)c(Nc3ccc4c(n3)NC(=O)C(C)(C)O4)n2)cc(OC)c1OC` [Tamatinib], in that order: 5.74 ± 0.354 µM and “cytotoxic in the micromolar range”.
The matching figures for `COc1cc2c(Nc3ccc(Br)cc3F)ncnc2cc1OCC1CCN(C)CC1` [Vandetanib]: 3.76 ± 0.132 µM and “cytotoxic in the micromolar range”.
As for MKI-1, in the data set with Calu-3 cells, the CC50 was determined as 0.892 ± 0.001 µM and the “cytotoxic activity (in words)” value is reported as “cytotoxic in the high nanomolar range”.
For the molecule N-acetyl cysteine [NAC], the “effect on SARS-CoV-2 entry (Spike pseudovirus luciferase)” value in data set [2] was “did not observe any effect”. Moreover, in the data set on Calu-3 cells, the CC50 was > 5000 µM. Further, in the data set on SARS-CoV-2 Delta strain, the “IHC analysis of the N protein in the lungs” value was “confirmed by immunohistochemistry”; the “levels of viral transcripts N and RdRp in lungs (qPCR)” value is “significantly lower levels of viral transcripts than untreated mice”. Also, in data set [1], the “intracellular ROS levels after 24 h treatment” value is “reduced ROS levels”.
As for imidazole ketone erastin [IKE], the CC50 in the data set with Calu-3 cells is 9.29 ± 0.324 µM. Also, in data set [1], the “intracellular ROS levels after 24 h treatment” value is listed as “reduced the basal ROS level”; the “intracellular ROS levels after SARS-CoV-2 infection with 24 h pretreatment” value is on record as “prevented virus-induced ROS bursts”; the “intracellular ROS levels over time after administration” value was “biphasic trend, with an initial increase at early time points (0–6 h) followed by a substantial decrease at a later time point (24 h)”.

Source of the values: PMC11411213 (Journal of Molecular Cell Biology, 2024).
